Columns and labels:
[1] = system: male Wistar rats; assay: Spontaneous home cage activity and body temperature measured by radiotelemetry; type: in vivo, rat; conditions: oral administration, home cage activity by telemetry
Excerpt: In Vivo Assay: Spontaneous Home Cage Activity and Body Temperature Measured by Radiotelemetry in Laboratory Rats:
The objective of the present test is to record the circadian behavioral activity of rats after oral administration of a compound according to general formula (I) of the invention.
Decreased home cage activity measured by telemetry in male Wistar rats was considered as an indication for sleep-inducing potential of a restricted number of highly optimized 1,2,3,4-tetrahydroisoquinoline derivatives.
Psychotropic drugs such as antidepressants, antipsychotics, sleep inducers or psychostimulants are well known to reduce or enhance home cage activity and body temperature following oral administration to laboratory animals. Thermoregulation is a complex process that contributes to homeostasis by coordinating metabolism, energy balance and behaviour. Body temperature changes with circadian behavioural activity and increases when locomotion increases. These two parameters were measured by telemetry in conscious freely moving Wistar rats. Anaesthetized animals were implanted, under aseptic conditions, with a body temperature/activity telemetric device into the peritoneal cavity. More than two weeks after the implantation of the telemetry system, data were collected at 5 minutes intervals during 96 hours. Hourly means were calculated for each rat. The first 48 h were used as an internal control trace and drug effects were compared to vehicle placebo. This method is validated pharmacologically by measuring amplitude and time course of both hypoactivity and hypothermia induced by GABA-A receptor modulators such as zolpidem.

[2] = target: T1, CYP3A4 (Homo sapiens, UniProt P08684); assay: Inhibitory potency against CYPs in human liver microsomes; type: in vitro ADME; conditions: human liver microsomes 0.25 mg/ml, midazolam (5 μM) 1'-hydroxylation, 5 min
T1 construct: performed using human liver microsomes (pool of 10 individuals); from tissue; host or cells: human liver microsomes, pool of 10 individuals
T1 sequence (P08684 whole entry): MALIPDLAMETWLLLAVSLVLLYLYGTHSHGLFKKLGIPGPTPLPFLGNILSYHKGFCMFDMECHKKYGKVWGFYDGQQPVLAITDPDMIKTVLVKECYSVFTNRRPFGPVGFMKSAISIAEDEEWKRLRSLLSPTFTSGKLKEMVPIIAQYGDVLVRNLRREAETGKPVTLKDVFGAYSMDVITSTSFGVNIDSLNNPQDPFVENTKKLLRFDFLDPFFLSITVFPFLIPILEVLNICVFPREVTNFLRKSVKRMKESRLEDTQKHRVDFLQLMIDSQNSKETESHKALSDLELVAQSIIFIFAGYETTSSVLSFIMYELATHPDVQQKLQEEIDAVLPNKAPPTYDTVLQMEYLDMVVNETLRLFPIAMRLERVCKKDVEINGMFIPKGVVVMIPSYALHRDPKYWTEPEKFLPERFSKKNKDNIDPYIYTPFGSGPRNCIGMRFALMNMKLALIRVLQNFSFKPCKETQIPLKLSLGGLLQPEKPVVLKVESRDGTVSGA
Procedure: Measurements of the Inhibitory Potency Against Different CYPs:
The CYP inhibition studies are performed using human liver microsomes (pool of 10 individuals), literature-established CYP isoform-selective substrates and quantification by either LC-MS/MS (for CYP3A4 and CYP2C9) or conventional HPLC with fluorimetric detection (for CYP2D6). The specific probes were midazolam 1′-hydroxylation for CYP3A4, dextromethorphan 3-hydroxylation for CYP2D6 and diclofenac 4′-hydroxylation for CYP2C9. […] Controls (sulfaphenazole for CYP2C9, fluoxetine for CYP2D6, and nicardipine for CYP3A4) were run in parallel in each plate.

| IC50 [2] | Structure (SMILES) | p.o activity [1] |
| --- | --- | --- |
| – | CNC(=O)C(c1ccccc1)N1CCc2cc(OC)c(OC)cc2C1CCc1ccc(C(F)(F)F)cc1 (mixture of isomers) [Example 1, 2-{6,7-dimethoxy-1-[2-(4-trifluoromethyl-phenyl)-ethyl]-3,4-dihydro-1H-isoquinolin-2-yl}-N-methyl-2-phenyl-acetamide] | yes |
| 18 µM | CNC(=O)C(c1ccccc1)N1CCc2cc(OC)c(OC)cc2C1CCc1ccc(C(F)(F)F)nc1 (stereo not drawn) [Example 3, 2-{6,7-dimethoxy-1-[2-(6-trifluoromethyl-pyridin-3-yl)-ethyl]-3,4-dihydro-1H-isoquinolin-2-yl}-N-methyl-2-phenyl-acetamide] | yes |
| – | CNC(=O)[C@@H](c1ccccc1)N1CCc2cc(OC)c(OC)cc2[C@@H]1CCc1ccc(C(F)(F)F)cc1 [Example 2, (2R)-2-{(1S)-6,7-dimethoxy-1-[2-(4-trifluoromethyl-phenyl)-ethyl]-3,4-dihydro-1H-isoquinolin-2-yl}-N-methyl-2-phenyl-acetamide] | yes |
| 50 µM | CNC(=O)[C@@H](c1ccccc1)N1CCc2cc(OC)c(OC)cc2[C@@H]1CCc1ccc(C(F)(F)F)nc1 [Example 4, (2R)-2-{(1S)-6,7-dimethoxy-1-[2-(6-trifluoromethyl-pyridin-3-yl)-ethyl]-3,4-dihydro-1H-isoquinolin-2-yl}-N-methyl-2-phenyl-acetamide] | yes |

Source: patent publication US7763638B2, “Substituted 1,2,3,4-tetrahydroisoquinoline derivatives” (Actelion Pharmaceuticals Ltd., priority 2004, dated 2010)
